Marks after values point to notes of the source that are not given here.
Legend:
[1] = test system: Bacillus circulans lactase β-galII (main enzyme of BIOLACTA); conditions: substrate ONPG; cited from Non-Patent Literature 1; cited from earlier work
[2] = test system: Paenibacillus pabuli lactase (enzyme of Example 1, SEQ ID NO: 1); assay: Analysis of reaction rate parameter with ONPG as substrate (Validation 1); format: biochemical; conditions: substrate ONPG 0.075 to 7.5 mM; 40° C., 10 minutes; 100 mM sodium phosphate (pH 6.5)
Description: After the production of each enzyme, the transformant was ultrasonically disrupted to give a cell disruption liquid. […] The prepared cell disruption liquids were each ultra-filtered as necessary to concentrate the enzyme. The concentrated disruption liquid of the enzyme consisting of an amino acid sequence set forth in SEQ ID NO: 1 was defined as Example 1, and the concentrated disruption liquid of the enzyme consisting of an amino acid sequence set forth in SEQ ID NO: 2 was defined as Example 2.
The reaction rate parameter when using the ONPG of the enzyme of Example 1 as the substrate was determined by the following method. The specific activity (μmol/mg protein/min) upon reaction at a substrate concentration of 0.075 to 7.5 mM at 40° C. for 10 minutes was calculated, and the specific activity was plotted to each substrate concentration. At this time, 100 mM sodium phosphate (pH 6.5) was used as the buffer. From the substrate saturation curve measured by the above method, following the Michaelis-Menten equation, Km (Michaelis-Menten constant), which indicates the affinity between the enzyme and the substrate, and V. (maximum velocity), which indicates how many micromoles of substrate is catalyzed in 1 minute per mg of the enzyme, were calculated.

For `O=[N+]([O-])c1ccccc1O[C@@H]1O[C@H](CO)[C@H](O)[C@H](O)[C@H]1O` [ONPG, o-nitrophenyl-β-galactopyranoside], the Km [1] is given as 10 mM, the Vmax [1] is given as 56.0* units/mg protein and the Km [2] is given as 0.36 mM. The Vmax [2] was 55.0 units/mg protein.
